Test results from patent US20260029420A1, “ANTI-CB2 ANTIBODIES AND THEIR USE IN A FLOW CYTOMETRY ASSAY TO MEASURE CELL SURFACE CB2 EXPRESSION” (Hoffmann-La Roche Inc., priority 2022, published 2026).
Several values for one entry are separate records, joined by “and”; a condition that tells them apart may be missing. Identical values can stand only once. Like-named read-outs stand apart in the source and are kept apart here.

Experiments:
CB2 [1] = biological target: T1, CB2 (Homo sapiens, UniProt P34972); test: CB2 internalization flow cytometry assay in whole blood of working-age healthy participants; format: cell-based; conditions: for IC50: B-cells
T1 construct: measured in whole blood samples from nine different healthy human volunteers of working-age; endogenous in cells; host or cells: B-cells (and basophils and other leukocytes) in human whole blood
Procedure: FIG. 7: IC50 determination for CB2 internalization on B-cells in response to RG7774 in whole blood of healthy participants. Human whole blood was incubated with RG7774 for 1 hour at 37° C. followed by incubation with the anti-human CB2 antibody 1/622. The expression of CB2 on the surface of B-cells was analyzed using a lineage marker mix specific for B-cells (CD45^+ CD3^− CD14^− CD19^+) and T-cells (CD45^+ CD3^+ CD14^−). The B/T-cell CB2 MFI ratio was calculated and normalized to baseline. 0 μM was set as 100% baseline receptor expression.
The CB2 is member of the G-protein coupled receptor family which upon ligand (agonist) binding can respond by internalization of the receptor into the endosomal compartment of the cell, thereby removing the respective receptor form the cell surface and initiating downstream signaling effects (Calebiro, D. et al. Best Pract Res Clin Endocrinol Metab 2018:32 (2):83-91). Such changes in cell surface expression of CB2 on B-cells in response to the treatment with the CB2 agonist RG7774 were measured in whole blood samples from nine different healthy human volunteers of working-age. Whole blood samples were treated with eight compound concentrations in duplicates to determine IC50 of RG7774 using a newly developed flow cytometry assay.
Na-Heparin whole blood samples were incubated in a 96-well plate with RG7774 for 1 hour at 37° C. in a humidified incubator with 5% CO2. Samples were harvested from the 96-well plate and 100 μl were transferred to labeled 5 ml Polystyrene Round Bottom Tubes (Becton Dickinson, Cat #352052). The unlabeled anti-CB2 antibody clone 1/622 was diluted to 50μg/ml with cell staining buffer (BioLegend, Cat #420201). 100 μl diluted anti-CB2 antibody was added to each tube and incubated for 30 minutes at 4° C. For the red blood cell lysis 10× BD PharmLyse lysing buffer (Becton Dickinson, Cat #55899) was diluted to 1× with distilled water and prewarmed to approximately 20° C. After the CB2 antibody incubation 2 ml of prewarmed 1× BD PharmLyse lysing buffer was added to each tube, mixed and incubated for 15 minutes at approximately 20° C. After the incubation, the tubes were centrifuged for 5 minutes at 250×g and 4° C. The supernatant was removed completely, cells were washed two times with cold cell staining buffer and supernatant removed completely after the centrifugation. Human FcR Blocking Reagent (Miltenyi Biotech, Cat #130-059-901) was diluted according to the package insert instructions with cold cell staining buffer. To each sample 50 μl was added, mixed and incubated for 10 minutes at 4° C. The secondary antibody Goat F(ab′)2 Anti-Mouse IgG3 PE (Southern Biotech, Cat #1102-09) was diluted 1:25 in cold cell staining buffer. To each sample 50 μl was added, mixed and incubated for 30 minutes at 4° C. in the dark. […]
For determination of cell surface expression of CB2 on B-cells, median fluorescent intensity (MFI) was analyzed by gating around the CD45^+ CD3^− CD14^− CD19^+ B-cells (see gating strategy in FIG. 6A to FIG. 6E) and acquiring a minimum of 2000 events in this gate (FIG. 6F). With the lineage marker mix other cell populations like T-cells (CD45^+ CD3^+ CD14^−), Monocytes (CD45^+ CD3^− CD14^+), Basophils (CD45^+ CD3^− CD14^− CD19^− CD193^+ IgE^+), NK cells (CD45^+ CD3^− CD14^− CD19^− CD193^− IgE^− CD16^+ CD56^+), Eosinophils (CD45^+ CD16^−) and Neutrophils (CD45^+ CD16^+) could be analyzed.

CB2 [2] = biological target: T1, CB2; test: CB2 internalization flow cytometry assay in whole blood of diabetic patients and matched healthy participants; format: cell-based
Description: FIGS. 9A-9E: IC50 value determination for RG7774 in different cell sub-populations in whole blood of diabetic patients and matched healthy participants. Median Fluorescence intensity (MFI)±SD of CB2 surface expression in diabetic patients (open dots, dotted line) and age-matched healthy participants (closed dots, continuous line) after exposure to increasing concentrations of RG7774. Mean MFI for individual data points is based on duplicate measures FIG. 9A: B-cells (CD45^+ CD3^− CD14^− CD19^+). FIG. 9B: Basophils (CD45^+ CD3^− CD14^− CD19^− CD193^+ IgE^+). FIG. 9C: Monocytes (CD45^+ CD3^− CD14^+). FIG. 9D: T-cells (CD45^+ CD3^+ CD14^−). FIG. 9E: NK cells (CD45^+ CD3^− CD14^− CD19^− CD193^− IgE^− CD16^+ CD56^+).
In order to understand, the exposure-response relationship for a drug-induced CB2 internalization on blood cell populations, in particular on B-cells and Basophils, whole blood of nine different diabetic type 1 and 2 patients and eight demographically and age-matched healthy participants were treated with 8 compound concentrations in duplicates to determine the IC50 of RG7774.
Human whole blood from diabetic patients and age-matched healthy participants was incubated with RG7774 for 1 hour at 37° C. followed by incubation with the anti-human CB2 Ab 1/622. The expression of CB2 on the surface of the different blood cell types was analyzed using the lineage marker mix specific for B-cells, Basophils, T-cells, NK-cells and Monocytes. MFI values at 0 μM RG7774 were set as 100% baseline receptor expression for each cell type.

[3] = individual donors, DM type 1, value in parentheses = excluded outlier subject
[4] = individual donors, matched healthy participants (HP)

T1 sequence (P34972 whole entry): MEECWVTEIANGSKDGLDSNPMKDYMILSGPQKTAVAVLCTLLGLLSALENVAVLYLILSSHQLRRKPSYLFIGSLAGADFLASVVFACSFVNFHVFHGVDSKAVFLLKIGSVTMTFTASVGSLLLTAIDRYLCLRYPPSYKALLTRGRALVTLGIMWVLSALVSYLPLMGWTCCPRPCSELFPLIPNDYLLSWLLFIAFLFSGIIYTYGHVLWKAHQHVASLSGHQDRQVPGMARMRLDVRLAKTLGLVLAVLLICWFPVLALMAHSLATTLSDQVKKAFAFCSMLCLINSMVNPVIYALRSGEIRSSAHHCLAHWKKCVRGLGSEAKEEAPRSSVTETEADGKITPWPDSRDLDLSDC

With `Cn1nnnc1Cn1nnc2c(N3CC[C@H](O)C3)nc(C(C)(C)C)nc21` [RG7774, (S)-1-[5-tert-Butyl-3-(1-methyl-1H-tetrazol-5-ylmethyl)-3H-[1,2,3]triazolo [4,5-d]pyrimidin-7-yl]-pyrrolidin-3-ol] the “reduction of the CB2 cell surface expression” value (CB2 [1]; Basophils (data not shown)) was “can also be detected”, the “Fold change vs HPs of mean IC50 (CB2 on B-cells)” value (shortened to “Fold change vs HPs of mean IC50”) (CB2 [1]; Healthy Participants (working-age), reference group) was 1 and the IC50 (CB2 [1]; IC50, individual working-age healthy donors, whole blood 1 hour 37° C., B/T-cell CB2 MFI ratio) was 125 nM and 81.6 nM and 64.7 nM and 86.7 nM and 64.3 nM and 144 nM. The IC50 (CB2 [1]; Individual IC50 values, range over donors, healthy human participants) was 64.3 to 144 nM, the “reduction of the CB2 cell surface expression” value (CB2 [1]; T-cells, Monocytes, NK-cells, Eosinophils and Neutrophils (data not shown)) was “has not been observed” and the Emax (CB2 [2]; Basophils, both groups on average, read-out: Emax) was ~60%. For the same molecule, the Emax (CB2 [2]; DM (all) (n = 8), read-out: Mean Emax (Basophils) ± SD per diagnosis) was 60.4 ± 9.5%, the Emax (CB2 [2]; DM type 1 (n = 3), read-out: Mean Emax (B-cells) ± SD per diagnosis) was 60.5 ± 2.8% and the Emax (CB2 [2]; DM type 1 (n = 3), read-out: Mean Emax (Basophils) ± SD per diagnosis) was 65.9 ± 2.2%. The Emax (CB2 [2]; DM type 2 (n = 5), read-out: Mean Emax (B-cells) ± SD per diagnosis) was 53.6 ± 14.5%, the Emax (CB2 [2]; DM type 2 (n = 5), read-out: Mean Emax (Basophils) ± SD per diagnosis) was 57 ± 10.9% and the “Fold change vs HPs of mean IC50” value (CB2 [2]; DM vs working-age healthy participants) was 1.8x. The IC50 (CB2 [2]; Individual IC50 (B-cells), individual donors, DM type 1, value in parentheses = excluded outlier subject) was 225 nM and 126 nM and 1060 nM, the IC50 (CB2 [2]; Individual IC50 (B-cells), individual donors, DM type 2) was 335 nM and 57.9 nM and the IC50 (CB2 [2]; Individual IC50 (Basophils), individual donors, DM type 1, value in parentheses = excluded outlier subject) was 72 nM and 38.1 nM and 31.7 nM and 154 nM. The IC50 (CB2 [2]; Individual IC50 (Basophils), individual donors, DM type 2) was 61 nM and 25.7 nM and 54.6 nM and 22.9 nM and 44.4 nM, the IC50 (CB2 [2]; Individual IC50 (Basophils), individual donors, matched healthy participants (HP)) was 22.1 nM and 23.5 nM and 26.5 nM and 58.1 nM and 55.8 nM and 77.3 nM and 80.1 nM and the Emax (CB2 [2]; Matched HPs (n = 8), read-out: Mean Emax (Basophils) ± SD per diagnosis) was 59.3 ± 4.5%. For the same molecule, the “Fold change vs HPs of mean IC50” value (CB2 [2]; Matched Healthy vs working-age healthy participants) was 2.6 x, the IC50 (CB2 [2]; Mean IC50 (Basophils) ± SD per diagnosis, DM (all) (n = 8)) was 43.8 ± 17.5 nM and the IC50 (CB2 [2]; Mean IC50 (Basophils) ± SD per diagnosis, DM type 1 (n = 3)) was 47.2 ± 21.7 nM. For the same molecule, the IC50 (CB2 [2]; Mean IC50 (Basophils) ± SD per diagnosis, DM type 2 (n = 5)) was 41.7 ± 17 nM, the IC50 (CB2 [2]; Mean IC50 (Basophils) ± SD per diagnosis, Matched HPs (n = 8)) was 57.2 ± 32.8 nM and the “fold higher exposure to achieve half maximum internalization of the CB2 on B-cells” value (CB2 [2]; diabetic patients and matched healthy participants relative to working-age healthy participants) was 2-3 fold. For the same molecule, the “Individual Emax (B-cells)” value (CB2 [2]; [3]) was 62.79% and (59.35) %, the “Individual Emax (Basophils)” value (CB2 [2]; [3]) was 68.43% and 64.41% and (57.09) % and the Emax (CB2 [2]; individual donors, DM type 1, value in parentheses = excluded outlier subject, read-out: Individual Emax (B-cells)) was 62%. For the same molecule, the Emax (CB2 [2]; individual donors, DM type 1, value in parentheses = excluded outlier subject, read-out: Individual Emax (Basophils)) was 64.9%, the “Individual Emax (B-cells)” value (CB2 [2]; individual donors, DM type 2) was 34.08% and 74.13% and 50.35% and 58.24% and 51.25% and the “Individual Emax (Basophils)” value (CB2 [2]; individual donors, DM type 2) was 41.64% and 62.91% and 54.19% and 70.94%. The “Individual Emax (B-cells)” value (CB2 [2]; [4]) was 52.88% and 51.18% and 52.64% and 70.18% and 52.40% and 60.22% and 49.16% and 57.11%, the “Individual Emax (Basophils)” value (CB2 [2]; [4]) was 64.04% and 57.73% and 54% and 58.78% and 62.7% and the Emax (CB2 [2]; individual donors, matched healthy participants (HP), read-out: Individual Emax (Basophils)) was 66.1%.
